{"source": "paper PMC5020499", "about": "“Crystal structures of archaeal 2-oxoacid:ferredoxin oxidoreductases from Sulfolobus tokodaii” (Scientific Reports, 2016)", "target": "T1, StOFOR2 (Sulfurisphaera tokodaii, UniProt Q96XT2+Q96XT4)", "T1 construct": "gene ST2435; recombinant in E. coli C43(DE3), genes from S. tokodaii genomic DNA in pOFORAB (pET-17b based), untagged; (ab)2 heterotetramer with TPP, Mg2+, [4Fe-4S]", "T1 sequence (Q96XT2 whole entry)": "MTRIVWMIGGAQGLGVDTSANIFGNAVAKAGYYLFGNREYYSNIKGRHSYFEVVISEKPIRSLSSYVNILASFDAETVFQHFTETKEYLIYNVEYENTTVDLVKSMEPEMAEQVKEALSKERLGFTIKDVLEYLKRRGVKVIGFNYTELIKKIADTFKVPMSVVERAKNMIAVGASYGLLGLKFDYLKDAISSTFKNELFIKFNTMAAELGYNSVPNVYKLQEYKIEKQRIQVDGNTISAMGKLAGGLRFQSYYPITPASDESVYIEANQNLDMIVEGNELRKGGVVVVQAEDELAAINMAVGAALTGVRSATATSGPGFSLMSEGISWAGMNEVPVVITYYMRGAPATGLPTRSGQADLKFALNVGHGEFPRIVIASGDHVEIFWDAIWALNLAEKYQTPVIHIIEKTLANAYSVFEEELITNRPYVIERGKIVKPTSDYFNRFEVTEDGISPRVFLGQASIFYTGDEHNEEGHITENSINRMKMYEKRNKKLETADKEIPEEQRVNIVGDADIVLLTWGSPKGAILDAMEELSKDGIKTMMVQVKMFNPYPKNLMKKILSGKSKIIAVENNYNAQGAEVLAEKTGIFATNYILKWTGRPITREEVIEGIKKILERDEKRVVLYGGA", "T1 sequence (Q96XT4 whole entry)": "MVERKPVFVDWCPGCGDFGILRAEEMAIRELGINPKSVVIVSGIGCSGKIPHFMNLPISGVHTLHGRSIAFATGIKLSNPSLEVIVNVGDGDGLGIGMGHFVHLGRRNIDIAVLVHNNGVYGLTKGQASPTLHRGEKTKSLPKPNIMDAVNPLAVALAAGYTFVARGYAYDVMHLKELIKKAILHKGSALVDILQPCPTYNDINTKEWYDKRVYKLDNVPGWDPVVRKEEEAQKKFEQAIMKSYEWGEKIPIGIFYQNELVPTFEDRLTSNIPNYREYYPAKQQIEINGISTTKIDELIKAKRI", "assay": "X-ray crystal structure, […] Å", "type": "binding", "conditions": "crystal soaked with 50 mM pyruvate for 30 min; active site, unreacted pyruvate", "data": [{"smiles": "CC(=O)C(=O)O", "note": "[pyruvate]", "values": [{"measurement": "X-ray crystal structure, 2.2 Å", "value": "we observed a separate density peak corresponding to the approximate size and shape of an unreacted pyruvate"}]}]}
